The source made the active and inactive calls. No cut-off for these calls is given here.
What follows are molecules tested against Calcium-activated potassium channel subunit alpha-1 (Rattus norvegicus) (UniProt Q62976) (assay: Activation of BK channel in rat cerebral myocytes by voltage patch clamp method).
Type: cell-based

Sequence of Calcium-activated potassium channel subunit alpha-1 (Rattus norvegicus) (Q62976 whole entry): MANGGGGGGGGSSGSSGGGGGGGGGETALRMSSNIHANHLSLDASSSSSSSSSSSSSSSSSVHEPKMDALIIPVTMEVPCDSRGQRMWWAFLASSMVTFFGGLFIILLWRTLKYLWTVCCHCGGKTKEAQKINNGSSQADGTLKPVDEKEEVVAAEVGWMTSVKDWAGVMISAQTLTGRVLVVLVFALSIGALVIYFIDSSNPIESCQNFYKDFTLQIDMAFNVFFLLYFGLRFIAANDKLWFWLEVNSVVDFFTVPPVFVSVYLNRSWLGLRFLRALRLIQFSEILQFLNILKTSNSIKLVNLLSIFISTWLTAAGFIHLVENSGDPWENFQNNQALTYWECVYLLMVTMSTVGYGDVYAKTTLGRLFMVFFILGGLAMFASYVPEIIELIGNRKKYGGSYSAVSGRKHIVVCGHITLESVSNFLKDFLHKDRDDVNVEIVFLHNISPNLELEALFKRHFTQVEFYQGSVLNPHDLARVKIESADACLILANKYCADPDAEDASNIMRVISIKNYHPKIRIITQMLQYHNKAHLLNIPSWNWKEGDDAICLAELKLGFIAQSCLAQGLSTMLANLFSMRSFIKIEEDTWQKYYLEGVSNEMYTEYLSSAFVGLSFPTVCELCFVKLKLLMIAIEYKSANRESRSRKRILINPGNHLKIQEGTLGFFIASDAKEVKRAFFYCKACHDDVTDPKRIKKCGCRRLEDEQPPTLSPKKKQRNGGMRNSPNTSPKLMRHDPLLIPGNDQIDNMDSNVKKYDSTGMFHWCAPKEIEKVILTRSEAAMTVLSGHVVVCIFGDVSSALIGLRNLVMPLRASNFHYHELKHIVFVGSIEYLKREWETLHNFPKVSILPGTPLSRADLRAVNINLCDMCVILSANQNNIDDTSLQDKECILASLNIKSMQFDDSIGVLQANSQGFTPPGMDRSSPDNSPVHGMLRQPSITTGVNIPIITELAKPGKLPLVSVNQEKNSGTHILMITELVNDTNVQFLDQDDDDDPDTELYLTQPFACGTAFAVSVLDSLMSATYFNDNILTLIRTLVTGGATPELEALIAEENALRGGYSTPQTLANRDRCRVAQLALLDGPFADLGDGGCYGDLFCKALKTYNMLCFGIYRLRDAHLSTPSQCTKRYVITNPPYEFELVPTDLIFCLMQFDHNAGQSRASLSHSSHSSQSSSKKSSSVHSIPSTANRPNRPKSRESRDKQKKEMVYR

Activity	Structure (SMILES)
inactive	COC(=O)CCCC#CCCO
Active	O=C(O)CCCCCC#CCCCCO
Active	O=C(O)CCCCCC#CCCCO
Active	COC(=O)CCCCC#CCCCO
inactive	COC(=O)CCCCCCCCCC#CCCCCO
inactive	COC(=O)CCCCCCCC#CCCCCO

From ChEMBL document CHEMBL1150349, “Design and synthesis of hydroxy-alkynoic acids and their methyl esters as novel activators of BK channels” (Bioorg Med Chem Lett, 2008)
